Experimental data taken from the CheMixHub viscosity set.
± gives the uncertainty stated by the source.

Assay: xn = mol fraction of the nth substance listed

CCCCCC(=O)[O-].[NH3+]CCO + O
viscosity [mPa·s], 101 kPa
Conditions | x1 = 0.0053 | x1 = 0.0114 | x1 = 0.0176 | x2 = 0.9074 | x2 = 0.9364 | x2 = 0.9583 | x2 = 0.9753
293.15 K | 1.44 ± 0.08 | 1.692 ± 0.081 | 1.82 ± 0.12 | 12.85 ± 0.7 | 6.672 ± 0.46 | 3.858 ± 0.26 | 2.546 ± 0.16
298.15 K | 1.26 ± 0.072 | 1.5 ± 0.078 | 1.68 ± 0.086 | 10.73 ± 0.6 | 5.73 ± 0.33 | 3.306 ± 0.19 | 2.04 ± 0.13
303.15 K | 1.11 ± 0.067 | 1.35 ± 0.073 | 1.494 ± 0.075 | 9.048 ± 0.52 | 4.92 ± 0.25 | 2.868 ± 0.15 | 1.806 ± 0.1

Cc1ccccc1C + CCCO
viscosity [mPa·s], 100 kPa
Conditions | 298.15 K | 308.15 K
x2 = 0.063 | 0.7471 ± 0.09 | 0.6664 ± 0.08
x2 = 0.123 | 0.7703 ± 0.093 | 0.6751 ± 0.081
x2 = 0.2215 | 0.784 ± 0.094 | 0.6782 ± 0.082
x2 = 0.3496 | 0.8508 ± 0.1 | 0.7537 ± 0.091
x2 = 0.4648 | 0.9239 ± 0.11 | 0.806 ± 0.097
x2 = 0.5689 | 1.017 ± 0.12 | 0.8647 ± 0.1
x2 = 0.6634 | 1.124 ± 0.14 | 0.9367 ± 0.11
x2 = 0.7497 | 1.264 ± 0.15 | 1.029 ± 0.12
x2 = 0.8287 | 1.454 ± 0.17 | 1.155 ± 0.14
x2 = 0.9014 | 1.626 ± 0.2 | 1.275 ± 0.15
x2 = 0.9684 | 1.836 ± 0.22 | 1.49 ± 0.18

c1ccc(Oc2ccccc2)cc1 + NCc1ccccc1
303.15 K, 101 kPa
Conditions | viscosity [mPa·s]
x2 = 0.1488 | 2.696 ± 0.058
x2 = 0.2823 | 2.409 ± 0.052
x2 = 0.4028 | 2.179 ± 0.047
x2 = 0.512 | 1.991 ± 0.043
x2 = 0.6114 | 1.839 ± 0.039
x2 = 0.7024 | 1.714 ± 0.037
x2 = 0.786 | 1.613 ± 0.034
x2 = 0.8629 | 1.531 ± 0.033
x2 = 0.934 | 1.465 ± 0.031

CCCCCCCCCCO + CCC(C)=O
viscosity [mPa·s], 100 kPa
Conditions | x2 = 0.0798 | x2 = 0.1601 | x2 = 0.2392 | x2 = 0.3498 | x2 = 0.4401 | x2 = 0.5602 | x2 = 0.6496 | x2 = 0.7411 | x2 = 0.8502 | x2 = 0.9406
293.15 K | 11.4 ± 1.1 | 8.94 ± 0.9 | 7.3 ± 0.73 | 5.65 ± 0.57 | 4.57 ± 0.46 | 3.24 ± 0.33 | 2.34 ± 0.24 | 1.68 ± 0.17 | 1.01 ± 0.1 | 0.6 ± 0.06
303.15 K | 7.99 ± 0.8 | 6.34 ± 0.64 | 4.92 ± 0.49 | 3.65 ± 0.37 | 2.75 ± 0.28 | 2 ± 0.2 | 1.52 ± 0.15 | 1.11 ± 0.11 | 0.74 ± 0.07 | 0.49 ± 0.05
313.15 K | 5.31 ± 0.53 | 4.24 ± 0.43 | 3.39 ± 0.34 | 2.42 ± 0.24 | 1.88 ± 0.19 | 1.39 ± 0.14 | 1.1 ± 0.11 | 0.82 ± 0.08 | 0.58 ± 0.06 | 0.4 ± 0.04
323.15 K | 3.95 ± 0.4 | 3.23 ± 0.32 | 2.64 ± 0.26 | 1.93 ± 0.19 | 1.52 ± 0.15 | 1.13 ± 0.11 | 0.87 ± 0.09 | 0.66 ± 0.07 | 0.48 ± 0.05 | 0.36 ± 0.04

Cc1ccccc1C + ClC(Cl)Cl
298.15 K, 101 kPa
Conditions | viscosity [mPa·s]
x2 = 0.262 | 0.739 ± 0.0093
x2 = 0.3694 | 0.725 ± 0.0091
x2 = 0.5222 | 0.6941 ± 0.0087
x2 = 0.5776 | 0.682 ± 0.0086
x2 = 0.6279 | 0.6691 ± 0.0084
x2 = 0.6624 | 0.6592 ± 0.0083
x2 = 0.7082 | 0.6482 ± 0.0081
x2 = 0.7562 | 0.6348 ± 0.008
x2 = 0.7944 | 0.6224 ± 0.0078

Cc1ccccc1C + Cc1ccccc1
viscosity [mPa·s], 101.33 kPa
Conditions | x2 = 0.3003 | x2 = 0.3607 | x2 = 0.5223 | x2 = 0.6669 | x2 = 0.8205
293.15 K | 0.722 ± 0.006 | 0.708 ± 0.006 | 0.67 ± 0.006 | 0.64 ± 0.006 | 0.616 ± 0.006
303.15 K | 0.636 ± 0.006 | 0.626 ± 0.006 | 0.601 ± 0.005 | 0.567 ± 0.005 | 0.546 ± 0.005
313.15 K | 0.568 ± 0.005 | 0.557 ± 0.005 | 0.528 ± 0.005 | 0.508 ± 0.005 | 0.489 ± 0.005
323.15 K | 0.507 ± 0.005 | 0.5 ± 0.005 | 0.472 ± 0.004 | 0.456 ± 0.004 | 0.441 ± 0.004

C=CCC[n+]1ccn(C)c1.[Br-] + O
viscosity [mPa·s], 101.33 kPa
Conditions | x1 = 0.0009034 | x1 = 0.00189 | x1 = 0.003585 | x1 = 0.005487 | x1 = 0.007167 | x1 = 0.008848
293.15 K | 1.018 ± 0.031 | 1.037 ± 0.032 | 1.071 ± 0.033 | 1.102 ± 0.034 | 1.136 ± 0.035 | 1.164 ± 0.036
298.15 K | 0.904 ± 0.028 | 0.92 ± 0.028 | 0.95 ± 0.029 | 0.977 ± 0.03 | 1.007 ± 0.031 | 1.031 ± 0.032
303.15 K | 0.809 ± 0.025 | 0.824 ± 0.025 | 0.85 ± 0.026 | 0.874 ± 0.027 | 0.901 ± 0.028 | 0.922 ± 0.028
308.15 K | 0.73 ± 0.022 | 0.742 ± 0.023 | 0.765 ± 0.023 | 0.788 ± 0.024 | 0.811 ± 0.025 | 0.83 ± 0.025
313.15 K | 0.662 ± 0.02 | 0.673 ± 0.021 | 0.694 ± 0.021 | 0.714 ± 0.022 | 0.735 ± 0.023 | 0.753 ± 0.023
